A short description of assay [1]: growth suppression of PTEN-null colon cells, dose response, cell-based, HCT116 PTEN knockout (AID 1047).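 Also: HCT116 colon tumor cells with PTEN knocked out; cells exposed to compound for 60 hours before readout; potency for loss of cell viability measured by luminescence.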 The class given is functional.
Assay [2] can be described thus: growth suppression of beta-catenin-knockout colon cells, dose response, cell-based, HCT116, human colon tumor (AID 1045).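 Also: HCT116 colon tumor cells with beta catenin knocked out; cells exposed to compound for 60 hours.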 The assay is classed as functional.
A short description of assay [3]: CEM21 lymphoblast cell cytotoxicity, dose response, cytotoxicity control for viral fusion inhibitor project, CellTiter-Glo luminescence, cherry-picked (AID 652042).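 Also: potency for signal decrease meaning cytotoxicity.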 The class given is functional, cell-based.
The nature of assay [4]: ZM109 Env clade C HIV-1 fusion inhibitors, dose response, HeLa effector, CEM target cells, luciferase, cherry-pick (AID 652058). The assay is classed as functional, cell-based.
Assay [5] can be described thus: off-target signal loss in HeLa-CEM21 co-culture – HeLa F-luc CTL cells, cherry-picked, counter-screen for HIV-1 Env fusion inhibitor project, dose response (AID 652040).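 Also: potency for signal decrease marking cytotoxic or nonspecific inhibition.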 The assay is classed as functional, cell-based.
The nature of assay [6]: inhibitors of clade B AD8 Env fusion, dose response, cell-based, cherry-pick (AID 652062).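 Also: luciferase signal from cell-cell fusion driven by HIV-1 clade B AD8 Env; potency is for inhibitors of fusion seen as a drop in luminescence.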 The class given is functional.
The target of assay [7] is T1, RNA-binding protein pos-1 (Caenorhabditis elegans, UniProt G5EF15).
T1 sequence (G5EF15 whole entry): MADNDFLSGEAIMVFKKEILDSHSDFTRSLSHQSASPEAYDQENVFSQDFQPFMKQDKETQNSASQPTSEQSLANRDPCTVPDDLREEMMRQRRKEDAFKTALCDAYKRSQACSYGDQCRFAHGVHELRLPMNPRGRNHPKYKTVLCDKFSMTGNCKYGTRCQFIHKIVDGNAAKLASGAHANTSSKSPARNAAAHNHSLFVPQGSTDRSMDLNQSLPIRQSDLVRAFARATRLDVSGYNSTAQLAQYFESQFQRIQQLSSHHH
Put plainly: inhibitors of POS-1/mex-3 RNA binding, dose response, biochemical, fluorescence polarization (AID 1964).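 Also: purified POS-1 fused to maltose binding protein made in E. coli; potency of compounds blocking POS-1 binding to fluorescent RNA.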

Assay [8] concerns the target T2, Zinc finger protein mex-5 (Caenorhabditis elegans, UniProt Q9XUB2).
T2 sequence (Q9XUB2 whole entry): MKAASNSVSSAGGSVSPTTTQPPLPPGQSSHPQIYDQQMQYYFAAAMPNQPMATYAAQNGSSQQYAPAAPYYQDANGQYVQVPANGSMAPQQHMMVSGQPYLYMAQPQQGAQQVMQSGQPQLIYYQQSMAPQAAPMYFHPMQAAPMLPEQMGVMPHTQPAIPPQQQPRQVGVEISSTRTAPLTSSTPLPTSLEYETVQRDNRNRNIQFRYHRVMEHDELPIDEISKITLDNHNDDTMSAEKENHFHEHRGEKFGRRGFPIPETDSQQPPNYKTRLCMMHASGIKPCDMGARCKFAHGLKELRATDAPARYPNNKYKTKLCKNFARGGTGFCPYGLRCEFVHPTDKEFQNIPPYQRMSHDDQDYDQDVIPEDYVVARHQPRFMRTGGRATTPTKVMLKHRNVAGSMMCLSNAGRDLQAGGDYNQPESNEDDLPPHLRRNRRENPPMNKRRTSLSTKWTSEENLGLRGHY
In words: MEX-5/TCR-2 RNA interaction inhibitors, dose response, biochemical, C. elegans, fluorescence polarization (AID 1960).

The target in a further assay is Troponin, cardiac muscle (Homo sapiens, UniProt P19429+P45379+P63316). In words: Fluorescence-based biochemical high throughput dose response assay for activators of the calcium sensitivity of cardiac Regulated Thin Filaments (RTF). [Related pubchem assays (depositor defined):AID493008, AID493018, AID504382, AID504383]. The assay is classed as protein-complex assay.

Another assay can be described thus: cells. The class given is functional.
The target in assay [9] is Ras and Rab interactor 1/Tyrosine-protein kinase ABL1 (Homo sapiens, UniProt P00519+Q13671). The class given is functional.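 Also: biochemical TR-FRET dose-response test measuring inhibition of binding between Rin1 and Abl proteins.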
Sequence of Ras and Rab interactor 1/Tyrosine-protein kinase ABL1 (P00519 whole entry, the tested form may be a part): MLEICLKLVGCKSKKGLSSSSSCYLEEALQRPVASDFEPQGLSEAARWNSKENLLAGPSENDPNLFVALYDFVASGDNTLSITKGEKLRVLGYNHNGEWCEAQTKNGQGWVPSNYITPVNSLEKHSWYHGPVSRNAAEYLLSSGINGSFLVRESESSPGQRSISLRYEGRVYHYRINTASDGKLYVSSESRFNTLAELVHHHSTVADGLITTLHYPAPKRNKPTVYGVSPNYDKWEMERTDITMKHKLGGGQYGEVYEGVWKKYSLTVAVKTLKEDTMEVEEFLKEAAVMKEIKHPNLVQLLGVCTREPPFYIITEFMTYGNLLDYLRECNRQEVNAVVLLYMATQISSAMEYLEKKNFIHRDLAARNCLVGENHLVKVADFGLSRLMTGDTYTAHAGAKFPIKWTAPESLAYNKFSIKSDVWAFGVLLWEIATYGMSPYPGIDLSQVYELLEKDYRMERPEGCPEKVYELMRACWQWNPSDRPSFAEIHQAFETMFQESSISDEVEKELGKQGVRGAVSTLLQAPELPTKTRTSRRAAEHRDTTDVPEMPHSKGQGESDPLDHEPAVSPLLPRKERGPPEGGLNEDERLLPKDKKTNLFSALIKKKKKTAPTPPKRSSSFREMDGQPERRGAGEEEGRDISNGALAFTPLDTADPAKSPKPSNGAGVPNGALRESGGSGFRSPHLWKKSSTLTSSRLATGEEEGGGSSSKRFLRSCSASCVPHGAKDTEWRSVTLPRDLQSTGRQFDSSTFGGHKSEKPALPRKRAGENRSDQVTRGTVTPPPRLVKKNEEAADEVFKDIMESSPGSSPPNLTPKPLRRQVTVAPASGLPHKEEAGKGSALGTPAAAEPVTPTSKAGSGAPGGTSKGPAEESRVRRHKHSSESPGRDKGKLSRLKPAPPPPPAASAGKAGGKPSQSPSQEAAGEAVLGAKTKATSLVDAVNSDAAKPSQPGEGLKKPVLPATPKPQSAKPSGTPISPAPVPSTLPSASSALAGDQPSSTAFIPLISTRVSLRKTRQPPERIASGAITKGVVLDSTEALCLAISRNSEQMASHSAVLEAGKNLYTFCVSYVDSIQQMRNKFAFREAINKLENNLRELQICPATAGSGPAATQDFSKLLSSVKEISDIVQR
Sequence of Ras and Rab interactor 1/Tyrosine-protein kinase ABL1 (Q13671 whole entry, the tested form may be a part): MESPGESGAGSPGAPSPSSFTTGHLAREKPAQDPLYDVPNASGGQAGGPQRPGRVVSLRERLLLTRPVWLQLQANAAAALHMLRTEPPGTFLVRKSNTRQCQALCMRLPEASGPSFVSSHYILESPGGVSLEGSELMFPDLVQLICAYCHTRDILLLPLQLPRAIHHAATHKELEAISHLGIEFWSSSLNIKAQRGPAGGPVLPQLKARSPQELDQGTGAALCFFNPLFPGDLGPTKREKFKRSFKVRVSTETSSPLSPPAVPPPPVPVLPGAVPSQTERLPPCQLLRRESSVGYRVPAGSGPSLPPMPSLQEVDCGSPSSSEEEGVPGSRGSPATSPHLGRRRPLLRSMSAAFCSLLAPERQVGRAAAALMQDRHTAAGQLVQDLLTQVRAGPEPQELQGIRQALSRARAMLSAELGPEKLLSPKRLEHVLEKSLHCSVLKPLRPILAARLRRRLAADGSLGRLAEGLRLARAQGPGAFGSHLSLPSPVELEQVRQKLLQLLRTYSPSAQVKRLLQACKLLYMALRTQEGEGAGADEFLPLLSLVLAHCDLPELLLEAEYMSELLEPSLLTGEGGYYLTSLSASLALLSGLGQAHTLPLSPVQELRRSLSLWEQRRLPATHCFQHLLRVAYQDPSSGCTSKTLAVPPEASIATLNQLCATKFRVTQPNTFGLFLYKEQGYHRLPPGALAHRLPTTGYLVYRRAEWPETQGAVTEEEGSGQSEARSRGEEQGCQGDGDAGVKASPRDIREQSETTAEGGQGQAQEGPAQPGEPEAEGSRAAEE
The target in assay [10] is T3, Carboxy-terminal domain RNA polymerase II polypeptide A small phosphatase 1 (Homo sapiens, UniProt Q9GZU7).
T3 sequence (Q9GZU7 whole entry): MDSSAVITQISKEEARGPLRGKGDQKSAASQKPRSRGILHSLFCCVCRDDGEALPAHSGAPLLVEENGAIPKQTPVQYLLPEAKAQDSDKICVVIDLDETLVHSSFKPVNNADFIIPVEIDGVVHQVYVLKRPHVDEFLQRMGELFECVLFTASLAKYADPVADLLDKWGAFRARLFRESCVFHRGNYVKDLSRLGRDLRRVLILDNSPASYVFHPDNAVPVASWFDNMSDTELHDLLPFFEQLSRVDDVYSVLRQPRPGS
Put plainly: inhibitors of CTDSP1, concentration-response testing, biochemical assay, absorbance-based, actives from ultra-high-throughput screening (AID 540297). The assay is classed as functional.

Assay [11] is described as follows: Vero cell cytotoxicity, dose response, cytotoxicity control for Vif-APOBEC3G degradation inhibitor project, Vero cells (AID 1117358). The class given is functional. Particulars: Human immunodeficiency virus 1, Vero.
A short description of assay [12]: miR-122 activators in hepatoma reporter cells, dose response, cell-based, Huh7 psiCHECK-miR122, Renilla luciferase, cherry-picked (AID 651956).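 Also: huh7 hepatoma cells stably carrying a psiCHECK-2 miR-122 sensor plasmid; renilla luciferase signal reporting endogenous miR-122 activity after 48 h compound exposure.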 The assay is classed as functional.
Assay [13] in a line: P. falciparum Dd2 growth inhibitors, dose response, SYBR Green, cherry-picked samples (AID 1159567). The assay is classed as functional, cell-based.
A short description of assay [14]: HepG2 cell cytotoxicity, dose response, cytotoxicity control, cherry-picked samples (AID 1159577). The class given is functional, cell-based.
Assay [15] is described as follows: LGR2 antagonists, dose response, cell-based, HEK293, CRE-luciferase reporter, cherry pick, set 2 (AID 743343).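 Also: transfected cells were stimulated with diluted bursicon conditioned medium after compound addition.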 The assay is classed as functional.
Assay [16] is described as follows: MC4R antagonists, dose response, counter-screen for LGR2 antagonist project, cell-based, plate reader, cherry pick (AID 743444).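 Also: transfected HEK 293 cells stimulated with alpha-MSH peptide; potency of inhibitors of the alpha-MSH evoked signal.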 The assay is classed as functional.
The nature of assay [17]: inhibitors of HIV Env-driven cell fusion, dose response, cherry-pick (AID 652057). The assay is classed as functional, cell-based.

The structures appear in SMILES notation. The source made the active and inactive calls. A value given as a limit tells only on which side of the number the result lay.

Take `CN(C)S(=O)(=O)c1ccc(C(=O)Nc2nc(-c3cccs3)cs2)cc1`: the EC50 in assay [1] is 79.7 µM (active); in assay [2] it was 102 µM (active). In addition, the AC50 was 67.7 µM (active) in [3], 0.879 µM (active) in [4], > 70 µM (inactive) in [5] and 9.43 µM (active) in assay [6].
In the case of `Cc1ccc(/C=C2\Oc3c(ccc(O)c3CN3CCN(CCO)CC3)C2=O)cc1`, the EC50 was 36 µM (active) in assay [7]; 73.9 µM (active) in assay [8]; 19.5 µM (inactive) at Troponin, cardiac muscle.
Take `COC(=O)c1ccc(CSc2nnc(-c3ccncc3)o2)o1`: the IC50 is 39.6 µM (active) in “cells” and 11 µM (inactive) in assay [9].
Consider `CCCCN1C(=O)N(C)C2NC(=O)NC21` (centres undefined), for which the IC50 in assay [9] was 3 µM (active).
Turning to `Cc1ccc(NC(=O)COc2ccc(/C=N/NC(=O)CSCc3ccccc3)cc2)cc1`, the EC50 at Troponin, cardiac muscle was > 71.5 µM (inactive). In addition, in [10], the IC50 was 9.82 µM (active).
Turning to `CCOC(=O)C1=C(N)n2c(s/c(=C/c3ccco3)c2=O)=C(C(=O)OC)C1c1ccco1` (centres undefined), the CC50 in assay [11] is > 40 µM (active).
Regarding `C[C@H](CO)N1C[C@H](C)[C@H](CN(C)C(=O)Nc2ccc3c(c2)OCO3)Oc2ncc(-c3cccc(C(F)(F)F)c3)cc2C1=O`, the AC50 in assay [12] is 14.1 µM (active).
With `COc1ccc(C#Cc2ccc([C@@H]3[C@@H](CO)N4CCCCN(C(=O)Nc5ccccc5)C[C@H]34)cc2)cc1`, the AC50 in assay [12] is 6.46 µM (active); in assay [13], 1.29 µM (active); in assay [14], 11.4 µM (active).
Consider `Cc1ccccc1S(=O)(=O)N1[C@H](C#N)[C@H](c2ccc(C#CC3CCCCC3)cc2)[C@H]1CO`, for which the results for the AC50 in assay [15] and in assay [16] were 10.7 µM (active) and 13 µM (active), respectively.
As for `CCN(CC)c1ccc(/C=N/N2C(C)CCCC2C)c(O)c1` (centres undefined), the AC50 in assay [17] is 2.22 µM (active); in assay [3] it was 48.3 µM (active); in assay [5] it was > 70 µM (inactive).

The values above are taken from ChEMBL document CHEMBL1201862, “PubChem BioAssay data set” (2004).
